Laboratory results as given in the NIST ThermoML archive (doi:10.1021/je0501843).
± gives the expanded uncertainty stated by the source.

Assay: molar heat capacity at constant volume; wn = mass fraction of the nth substance listed
Conditions: Fluid (supercritical or subcritical phases), Vacuum adiabatic calorimetry, w1 = 0.5001

FC(F)C(F)(F)F [pentafluoroethane] + FCF
Conditions	molar heat capacity at constant volume [J/K/mol]
363 K, 13894 kPa	70.07 ± 1.4
364 K, 6970 kPa	80.93 ± 1.6
364 K, 7223 kPa	79.29 ± 1.6
364 K, 7494 kPa	80.29 ± 1.6
364 K, 7828 kPa	75.98 ± 1.5
364 K, 10192 kPa	72.66 ± 1.5
364 K, 14207 kPa	69.59 ± 1.4
365 K, 7077 kPa	80.93 ± 1.6
365 K, 7344 kPa	79.26 ± 1.6
365 K, 7632 kPa	79.75 ± 1.6
365 K, 7982 kPa	75.67 ± 1.5
365 K, 10427 kPa	72.54 ± 1.5
365 K, 14520 kPa	69.04 ± 1.4
366 K, 7184 kPa	80.58 ± 1.6
366 K, 7465 kPa	80.45 ± 1.6
366 K, 7771 kPa	80.4 ± 1.6
366 K, 8137 kPa	76.08 ± 1.5
366 K, 10664 kPa	73.17 ± 1.5
366 K, 14835 kPa	69.94 ± 1.4
367 K, 7291 kPa	80.32 ± 1.6
367 K, 7587 kPa	79.46 ± 1.6
367 K, 7907 kPa	79.31 ± 1.6
367 K, 8294 kPa	74.79 ± 1.5
367 K, 10900 kPa	72.03 ± 1.5
367 K, 15148 kPa	69.1 ± 1.4
368 K, 7397 kPa	79.17 ± 1.6
368 K, 7708 kPa	77.58 ± 1.6
368 K, 8044 kPa	77.88 ± 1.6
368 K, 8449 kPa	74.12 ± 1.5
368 K, 11133 kPa	71.25 ± 1.4
368 K, 15462 kPa	68.32 ± 1.4
369 K, 7504 kPa	79.62 ± 1.6
369 K, 7831 kPa	78.35 ± 1.6
369 K, 8183 kPa	78.65 ± 1.6
369 K, 8605 kPa	76.18 ± 1.5
369 K, 11369 kPa	72.83 ± 1.5
369 K, 15777 kPa	69.74 ± 1.4
370 K, 7612 kPa	79.45 ± 1.6
370 K, 7953 kPa	77.86 ± 1.6
370 K, 8323 kPa	77.55 ± 1.6
370 K, 8762 kPa	76.14 ± 1.5
370 K, 11608 kPa	72.92 ± 1.5
370 K, 16094 kPa	69.84 ± 1.4
371 K, 7719 kPa	78.97 ± 1.6
371 K, 8075 kPa	77.56 ± 1.6
371 K, 8460 kPa	76.45 ± 1.5
371 K, 8917 kPa	74.86 ± 1.5
371 K, 11844 kPa	72.52 ± 1.5
371 K, 16410 kPa	69.31 ± 1.4
372 K, 7825 kPa	78.44 ± 1.6
372 K, 8198 kPa	77.29 ± 1.6
372 K, 8601 kPa	75.95 ± 1.5
372 K, 9073 kPa	74.57 ± 1.5
372 K, 12081 kPa	71.78 ± 1.5
372 K, 16724 kPa	69.08 ± 1.4
373 K, 7931 kPa	77.94 ± 1.6
373 K, 8321 kPa	76.93 ± 1.6
373 K, 8740 kPa	76.42 ± 1.5
373 K, 9230 kPa	74.03 ± 1.5
373 K, 12318 kPa	72.32 ± 1.5
373 K, 17037 kPa	69.04 ± 1.4
374 K, 8039 kPa	79.02 ± 1.6
374 K, 8445 kPa	77.8 ± 1.6
374 K, 8878 kPa	77.52 ± 1.6
374 K, 9389 kPa	74.39 ± 1.5
374 K, 12556 kPa	73.35 ± 1.5
374 K, 17355 kPa	69.94 ± 1.4
375 K, 8147 kPa	78.2 ± 1.6
375 K, 8567 kPa	75.61 ± 1.5
375 K, 9016 kPa	76.25 ± 1.5
375 K, 9544 kPa	73.41 ± 1.5
375 K, 12795 kPa	71.55 ± 1.4
375 K, 17669 kPa	69.58 ± 1.4
376 K, 8254 kPa	77.5 ± 1.6
376 K, 8690 kPa	75.69 ± 1.5
376 K, 9155 kPa	75.06 ± 1.5
376 K, 9701 kPa	73.09 ± 1.5
376 K, 13033 kPa	71.53 ± 1.4
376 K, 17984 kPa	69.16 ± 1.4
377 K, 8362 kPa	78.12 ± 1.6
377 K, 8813 kPa	76.87 ± 1.5
377 K, 9295 kPa	76.67 ± 1.5
377 K, 9858 kPa	74.31 ± 1.5
377 K, 13272 kPa	72.67 ± 1.5
377 K, 18301 kPa	69.67 ± 1.4
378 K, 8469 kPa	77.78 ± 1.6
378 K, 8937 kPa	76.5 ± 1.5
378 K, 9437 kPa	77.01 ± 1.6
378 K, 10018 kPa	74.83 ± 1.5
378 K, 13511 kPa	71.98 ± 1.5
378 K, 18619 kPa	69.86 ± 1.4
379 K, 8575 kPa	76.76 ± 1.5
379 K, 9060 kPa	75.82 ± 1.5
379 K, 9576 kPa	76.42 ± 1.5
379 K, 10174 kPa	74.57 ± 1.5
379 K, 13747 kPa	71.87 ± 1.5
379 K, 18935 kPa	70.14 ± 1.4
380 K, 8683 kPa	76.61 ± 1.5
380 K, 9183 kPa	75.69 ± 1.5
380 K, 9715 kPa	75.6 ± 1.5
380 K, 10331 kPa	73.35 ± 1.5
380 K, 13988 kPa	71.55 ± 1.4
381 K, 8790 kPa	77.44 ± 1.6
381 K, 9306 kPa	77.28 ± 1.6
381 K, 9856 kPa	75.26 ± 1.5
381 K, 10492 kPa	73.9 ± 1.5
381 K, 14227 kPa	72.04 ± 1.5
382 K, 8897 kPa	78.41 ± 1.6
382 K, 9432 kPa	76.92 ± 1.6
382 K, 9996 kPa	76.48 ± 1.5
382 K, 10651 kPa	74.52 ± 1.5
382 K, 14466 kPa	72.98 ± 1.5
383 K, 9005 kPa	77.33 ± 1.6
383 K, 9553 kPa	75.97 ± 1.5
383 K, 10136 kPa	75.35 ± 1.5
383 K, 10808 kPa	74.44 ± 1.5
383 K, 14706 kPa	72.4 ± 1.5
384 K, 9112 kPa	76.6 ± 1.5
384 K, 9679 kPa	76.51 ± 1.5
384 K, 10277 kPa	75.34 ± 1.5
384 K, 10967 kPa	74.6 ± 1.5
384 K, 14944 kPa	71.93 ± 1.5
385 K, 9219 kPa	77.25 ± 1.6
385 K, 9804 kPa	75.82 ± 1.5
385 K, 10418 kPa	76.16 ± 1.5
385 K, 11125 kPa	74.07 ± 1.5
385 K, 15188 kPa	72.26 ± 1.5
386 K, 9326 kPa	78.28 ± 1.6
386 K, 9929 kPa	76.35 ± 1.5
386 K, 10558 kPa	76.6 ± 1.5
386 K, 11283 kPa	75.16 ± 1.5
386 K, 15426 kPa	73.47 ± 1.5
387 K, 9434 kPa	77.16 ± 1.6
387 K, 10051 kPa	76.61 ± 1.5
387 K, 10699 kPa	76.14 ± 1.5
387 K, 11442 kPa	74.89 ± 1.5
387 K, 15666 kPa	72.66 ± 1.5
388 K, 9540 kPa	76.32 ± 1.5
388 K, 10174 kPa	74.86 ± 1.5
388 K, 10840 kPa	75.57 ± 1.5
388 K, 11602 kPa	73.37 ± 1.5
388 K, 15904 kPa	71.19 ± 1.4
389 K, 9649 kPa	77.31 ± 1.6
389 K, 10296 kPa	75.87 ± 1.5
389 K, 10980 kPa	76.71 ± 1.5
389 K, 11761 kPa	73.84 ± 1.5
389 K, 16147 kPa	71.61 ± 1.4
390 K, 9756 kPa	77.57 ± 1.6
390 K, 10421 kPa	77.3 ± 1.6
390 K, 11124 kPa	76.88 ± 1.6
390 K, 11922 kPa	75.02 ± 1.5
390 K, 16388 kPa	72.19 ± 1.5
391 K, 9862 kPa	77.21 ± 1.6
391 K, 10547 kPa	76.53 ± 1.5
391 K, 11263 kPa	76.5 ± 1.5
391 K, 12081 kPa	74.96 ± 1.5
391 K, 16627 kPa	71.79 ± 1.5
392 K, 9969 kPa	77.4 ± 1.6
392 K, 10670 kPa	75.59 ± 1.5
392 K, 11403 kPa	75.77 ± 1.5
392 K, 12239 kPa	73.58 ± 1.5
392 K, 16868 kPa	71.21 ± 1.4
393 K, 10077 kPa	78.13 ± 1.6
393 K, 10795 kPa	76.57 ± 1.5
393 K, 11546 kPa	75.66 ± 1.5
393 K, 12400 kPa	74.26 ± 1.5
393 K, 17110 kPa	71.47 ± 1.4
394 K, 10185 kPa	78.09 ± 1.6
394 K, 10920 kPa	77.19 ± 1.6
394 K, 11688 kPa	76.6 ± 1.5
394 K, 12560 kPa	75.24 ± 1.5
394 K, 17351 kPa	71.82 ± 1.5
395 K, 10292 kPa	77.54 ± 1.6
395 K, 11045 kPa	76.74 ± 1.5
395 K, 11829 kPa	75.92 ± 1.5
395 K, 12720 kPa	73.89 ± 1.5
395 K, 17590 kPa	71.67 ± 1.4
396 K, 10400 kPa	77.68 ± 1.6
396 K, 11168 kPa	76.85 ± 1.5
396 K, 11972 kPa	76.16 ± 1.5
396 K, 12880 kPa	73.78 ± 1.5
396 K, 17831 kPa	71.16 ± 1.4
397 K, 10508 kPa	78.41 ± 1.6
397 K, 11292 kPa	76.06 ± 1.5
397 K, 12113 kPa	76.4 ± 1.5
397 K, 13040 kPa	74.36 ± 1.5
397 K, 18073 kPa	71.18 ± 1.4
398 K, 10616 kPa	78.25 ± 1.6
398 K, 11415 kPa	76.66 ± 1.5
398 K, 12256 kPa	75.92 ± 1.5
398 K, 13199 kPa	74.81 ± 1.5
398 K, 18315 kPa	72.43 ± 1.5
399 K, 10723 kPa	77.16 ± 1.6
399 K, 11538 kPa	76.8 ± 1.5
399 K, 12395 kPa	76.53 ± 1.5
399 K, 13361 kPa	74.08 ± 1.5
399 K, 18556 kPa	72.11 ± 1.5
